Data on 27 compounds can be found in patent US8134015B2, “Compound inhibiting in vivo phosphorous transport and medicine containing the same” (Kyowa Hakko Kirin Co., Ltd., priority 2003, dated 2012).

This assay deals with T1, rat NaPi-2b (Rattus norvegicus, UniProt Q9JJ09).
T1 construct: expressed in transfected cells; host or cells: Xenopus oocytes injected with cRNA
T1 sequence (Q9JJ09 1-695): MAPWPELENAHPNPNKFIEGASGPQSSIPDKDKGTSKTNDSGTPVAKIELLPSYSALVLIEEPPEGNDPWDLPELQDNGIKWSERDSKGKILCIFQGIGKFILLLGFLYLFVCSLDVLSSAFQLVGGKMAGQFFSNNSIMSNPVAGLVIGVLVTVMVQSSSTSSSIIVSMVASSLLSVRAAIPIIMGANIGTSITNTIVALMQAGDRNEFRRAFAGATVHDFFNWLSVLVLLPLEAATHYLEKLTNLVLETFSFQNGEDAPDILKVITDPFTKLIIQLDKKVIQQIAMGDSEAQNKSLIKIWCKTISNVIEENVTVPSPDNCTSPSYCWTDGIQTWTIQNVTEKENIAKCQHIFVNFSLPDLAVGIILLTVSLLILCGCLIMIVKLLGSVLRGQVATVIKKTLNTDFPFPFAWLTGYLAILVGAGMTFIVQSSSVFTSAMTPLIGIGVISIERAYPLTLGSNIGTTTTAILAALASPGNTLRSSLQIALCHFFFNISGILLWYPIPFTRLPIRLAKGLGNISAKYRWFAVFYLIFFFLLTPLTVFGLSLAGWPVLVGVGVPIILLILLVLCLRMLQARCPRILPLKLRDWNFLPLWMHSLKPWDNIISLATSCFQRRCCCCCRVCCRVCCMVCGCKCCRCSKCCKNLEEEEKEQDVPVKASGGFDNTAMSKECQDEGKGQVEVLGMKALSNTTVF
Put plainly: Sodium-dependent phosphate uptake of Xenopus oocytes which expressed NaPi-2b (32P). The class given is cell-based. Conditions: for inhibition at 300 µM: phosphate uptake, oocytes expressing rat NaPi-2b, determined from inhibition curve; for IC50: Xenopus oocytes expressing rat NaPi-2b, 32P radioactive phosphorus, read-out: IC50 (phosphate uptake inhibitory activity). In short, it runs like this: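 Oocytes injected with rat NaPi-2b cRNA, cultured 2 d, then 32P uptake measured with compound. Values: % inhibition at 300 and 100 μM, both from one inhibition curve.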

On to `CCN(CC)CCNCc1cccc(C(=O)Nc2c(C)csc2C(=O)N/N=C/c2ccc(C)c(C)c2)c1` [Compound 536, 3-[(2-Diethylamino-ethylamino)-methyl]-N-[2-(3,4-dimethyl-benzylidene-hydrazinocarbonyl)-4-methyl-thiophen-3-yl]-benzamide], for which at 300 µM the inhibition was 88.2%.
As to `CCN(CC)CCNCc1cccc(C(=O)Nc2c(C)csc2C(=O)N/N=C/c2ccc(C)cc2)c1` [Compound 537, 3-[(2-Diethylamino-ethylamino)-methyl]-N-[4-methyl-2-(4-methyl-benzylidene-hydrazinocarbonyl)-thiophen-3-yl]-benzamide], the inhibition (in general, how much of the control response was suppressed) at 300 µM worked out at 82%.
As for `CCN(CC)CCNCc1cccc(C(=O)Nc2c(C)csc2C(=O)N/N=C/c2cccc(F)c2)c1` [Compound 538, 3-[(2-Diethylamino-ethylamino)-methyl]-N-[2-(3-fluoro-benzylidene-hydrazinocarbonyl)-4-methyl-thiophen-3-yl]-benzamide], at 300 µM the inhibition was 30.3%.
Same read-out and setting: under `CCN(CC)CCNCc1cccc(C(=O)Nc2c(C)csc2C(=O)N/N=C/c2ccc(Cl)c(C(F)(F)F)c2)c1` [Compound 539, N-[2-(4-Chloro-3-trifluoromethyl-benzylidene-hydrazinocarbonyl)-4-methyl-thiophen-3-yl]-3-[(2-diethylamino-ethylamino)-methyl]-benzamide] stands 88.4%; under `Cc1ccc(/C=N/NC(=O)c2scc(C)c2NC(=O)c2cccc(CN(CC(C)O)CC(C)O)c2)cc1` (stereo not drawn) [Compound 540, 3-{[Bis-(2-hydroxy-propyl)-amino]-methyl}-N-[4-methyl-2-(4-methyl-benzylidene-hydrazinocarbonyl)-thiophen-3-yl]-benzamide], 38.4%; under `Cc1ccc(/C=N/NC(=O)c2scc(C)c2NC(=O)c2cccc(CN3CCC(O)CC3)c2)cc1C` [Compound 541, N-[2-(3,4-Dimethyl-benzylidene-hydrazinocarbonyl)-4-methyl-thiophen-3-yl]-3-(4-hydroxy-piperidin-1-ylmethyl)-benzamide], 32.2%.
`Cc1csc(C(=O)N/N=C/c2cccc(F)c2)c1NC(=O)c1cccc(CN2CCC(O)CC2)c1` [Compound 542, N-[2-(3-Fluoro-benzylidene-hydrazinocarbonyl)-4-methyl-thiophen-3-yl]-3-(4-hydroxy-piperidin-1-ylmethyl)-benzamide] showed an inhibition at 300 µM of 41.1%.
Consider `COc1ccc(/C=N/NC(=O)c2scc(C)c2NC(=O)c2cccc(CN3CCC(O)CC3)c2)cc1` [Compound 543, 3-(4-Hydroxy-piperidin-1-ylmethyl)-N-[2-(4-methoxy-benzylidene-hydrazinocarbonyl)-4-methyl-thiophen-3-yl]-benzamide], for which the inhibition at 300 µM amounted to 30.2%.
`Cc1ccc(CNNC(=O)c2cc(Br)ccc2NC(=O)c2ccccn2)cc1` [Compound 544, Pyridin-2-carboxylic acid {4-bromo-2-[N′-(4-methyl-benzyl)-hydrazinocarbonyl]-phenyl}-amide] registered an inhibition at 300 µM of 60%.
Turning to `Cc1ccc(CNNC(=O)c2ccccc2NC(=O)c2ccncc2)cc1` [Compound 545, N-{2-[N′-(4-Methyl-benzyl)-hydrazinocarbonyl]-phenyl}-isonicotinamide], at 300 µM the inhibition was 88.8%.
Same read-out and setting: to `O=C(Nc1ccc(Br)cc1C(=O)NNCc1ccc(Cl)c(C(F)(F)F)c1)c1cccc(CSCCO)c1` [Compound 546, N-{4-Bromo-2-[N′-(4-chloro-3-trifluoromethyl-benzyl)-hydrazinocarbonyl]-phenyl}-3-(2-hydroxy-ethylsulfanylmethyl)-benzamide] belongs 85.2%; to `Cc1ccc(CNNC(=O)c2cc(Cl)ccc2NC(=O)c2cccc(CSCCO)c2)cc1` [Compound 547, N-{4-Chloro-2-[N′-(4-methyl-benzyl)-hydrazinocarbonyl]-phenyl}-3-(2-hydroxy-ethylsulfanylmethyl)-benzamide], 66.6%.
`COc1ccc(C(=O)Nc2ccc(Br)cc2C(=O)NNCc2ccc(C)c(C)c2)cc1OC` [Compound 548, N-{4-Bromo-2-[N′-(3,4-dimethyl-benzyl)-hydrazinocarbonyl]-phenyl}-3,4-dimethoxy-benzamide] registered an inhibition at 300 µM of 85.7%.
`O=C(Nc1ccc(Cl)cc1C(=O)N/N=C/c1cccc(F)c1)c1cccc(CN(CCO)CCO)c1` [Compound 549, 3-{[Bis-(2-hydroxy-ethyl)-amino]-methyl}-N-[4-chloro-2-(3-fluoro-benzylidene-hydrazinocarbonyl)-phenyl]-benzamide]: the inhibition at 300 µM worked out at 85.1%.
On to `O=C(Nc1ccc(Cl)cc1C(=O)N/N=C/c1ccc(F)cc1)c1cccc(CN(CCO)CCO)c1` [Compound 550, 3-{[Bis-(2-hydroxy-ethyl)-amino]-methyl}-N-[4-chloro-2-(4-fluoro-benzylidene-hydrazinocarbonyl)-phenyl]-benzamide], for which the inhibition at 300 µM is 78.9%.
On to `Cc1ccc(/C=N/NC(=O)c2c(C)csc2NC(=O)c2cccc(CSc3nc[nH]n3)c2)cc1C` [Compound 551, N-[3-(3,4-Dimethyl-benzylidene-hydrazinocarbonyl)-4-methyl-thiophen-2-yl]-3-(1H-[1,2,4]triazol-3-ylsulfanylmethyl)-benzamide], for which the IC50 (usually the concentration that inhibits the measured activity by half) is 470 nM.
As for `Cc1ccc(/C=N/NC(=O)c2c(C)csc2NC(=O)c2cccc(CSc3nc[nH]n3)c2)cc1` [Compound 552, N-[4-Methyl-3-(4-methyl-benzylidene-hydrazinocarbonyl)-thiophen-2-yl]-3-(1H-[1,2,4]triazol-3-ylsulfanylmethyl)-benzamide], the IC50 stood at 2630 nM.
Same read-out and setting: to `Cc1csc(NC(=O)c2cccc(CSc3nc[nH]n3)c2)c1C(=O)N/N=C/c1ccc(F)cc1` [Compound 553, N-[3-(4-Fluoro-benzylidene-hydrazinocarbonyl)-4-methyl-thiophen-2-yl]-3-(1H-[1,2,4]triazol-3-ylsulfanylmethyl)-benzamide] belongs 2800 nM.
On to `Cc1csc(NC(=O)c2cccc(CSc3nc[nH]n3)c2)c1C(=O)N/N=C/c1cccc(F)c1` [Compound 554, N-[3-(3-Fluoro-benzylidene-hydrazinocarbonyl)-4-methyl-thiophen-2-yl]-3-(1H-[1,2,4]triazol-3-ylsulfanylmethyl)-benzamide], for which the IC50 amounted to 1460 nM.
On the same count and under the same terms, under `Cc1csc(NC(=O)c2cccc(CSc3nc[nH]n3)c2)c1C(=O)N/N=C/c1ccc(Cl)c(C(F)(F)F)c1` [Compound 555, N-[3-(4-Chloro-3-trifluoromethyl-benzylidene-hydrazinocarbonyl)-4-methyl-thiophen-2-yl]-3-(1H-[1,2,4]triazol-3-ylsulfanylmethyl)-benzamide] stands less than 3000 nM.
Consider `COc1ccc(/C=N/NC(=O)c2c(C)csc2NC(=O)c2cccc(CSc3nc[nH]n3)c2)cc1` [Compound 556, N-[3-(4-Methoxy-benzylidene-hydrazinocarbonyl)-4-methyl-thiophen-2-yl]-3-(1H-[1,2,4]triazol-3-ylsulfanylmethyl)-benzamide], for which the IC50 was less than 3000 nM.
On to `Cc1ccc(/C=N/NC(=O)c2c(C)csc2NC(=O)c2cccc(CSCCCO)c2)cc1C` [Compound 557, N-[3-(3,4-Dimethyl-benzylidene-hydrazinocarbonyl)-4-methyl-thiophen-2-yl]-3-(3-hydroxy-propylsulfanylmethyl)-benzamide], for which the IC50 is less than 300 nM.
On the same count and under the same terms, to `Cc1ccc(/C=N/NC(=O)c2c(C)csc2NC(=O)c2cccc(CSCCCO)c2)cc1` [Compound 558, 3-(3-Hydroxy-propylsulfanylmethyl)-N-[4-methyl-3-(4-methyl-benzylidene-hydrazinocarbonyl)-thiophen-2-yl]-benzamide] belongs 1070 nM.
For the compound `Cc1csc(NC(=O)c2cccc(CSCCCO)c2)c1C(=O)N/N=C/c1ccc(F)cc1` [Compound 559, N-[3-(4-Fluoro-benzylidene-hydrazinocarbonyl)-4-methyl-thiophen-2-yl]-3-(3-hydroxy-propylsulfanylmethyl)-benzamide], the IC50 turned out to be 1260 nM.
Turning to `Cc1csc(NC(=O)c2cccc(CSCCCO)c2)c1C(=O)N/N=C/c1cccc(F)c1` [Compound 560, N-[3-(3-Fluoro-benzylidene-hydrazinocarbonyl)-4-methyl-thiophen-2-yl]-3-(3-hydroxy-propylsulfanylmethyl)-benzamide], the IC50 is 1090 nM.
As to `Cc1csc(NC(=O)c2cccc(CSCCCO)c2)c1C(=O)N/N=C/c1ccc(Cl)c(C(F)(F)F)c1` [Compound 561, N-[3-(4-Chloro-3-trifluoromethyl-benzylidene-hydrazinocarbonyl)-4-methyl-thiophen-2-yl]-3-(3-hydroxy-propylsulfanylmethyl)-benzamide], the 50% inhibitory concentration (IC50) came to 310 nM.
On to `COc1ccc(/C=N/NC(=O)c2c(C)csc2NC(=O)c2cccc(CSCCCO)c2)cc1` [Compound 562, 3-(3-Hydroxy-propylsulfanylmethyl)-N-[3-(4-methoxy-benzylidene-hydrazinocarbonyl)-4-methyl-thiophen-2-yl]-benzamide], for which the IC50 is less than 1000 nM.
